Results taken from PubChem BioAssay (NCI).
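How tested: cells in 96-well plates exposed to compound for 48 hours at five concentrations. Abbreviation: GI50, concentration required for 50% inhibition of growth. The concentration for full growth arrest is given as TGI.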

What was measured:
Assay in all cases: inhibition of tumour cell growth, NCI panel, 48 h
SF-539 CNS = test system: SF-539 CNS
786-0 renal = test system: 786-0 renal
SK-MEL-2 melanoma = test system: SK-MEL-2 melanoma
OVCAR-5 ovarian = test system: OVCAR-5 ovarian
PC-3 prostate = test system: PC-3 prostate
SK-OV-3 ovarian = test system: SK-OV-3 ovarian
A549 NSCLC = test system: A549 NSCLC
OVCAR-8 ovarian = test system: OVCAR-8 ovarian
IGROV1 ovarian = test system: IGROV1 ovarian
M14 melanoma = test system: M14 melanoma
HCT-15 colon = test system: HCT-15 colon
CAKI-1 renal = test system: CAKI-1 renal
TK-10 renal = test system: TK-10 renal
NCI/ADR-RES ovarian = test system: NCI/ADR-RES ovarian
HS 578T breast = test system: HS 578T breast
UACC-62 melanoma = test system: UACC-62 melanoma
MDA-MB-435 = test system: MDA-MB-435
UO-31 renal = test system: UO-31 renal
MCF7 breast = test system: MCF7 breast
NCI-H23 lung = test system: NCI-H23 lung
SW-620 colon = test system: SW-620 colon
HOP-92 NSCLC = test system: HOP-92 NSCLC
CCRF-CEM leukemia = test system: CCRF-CEM leukemia
HCC-2998 colon = test system: HCC-2998 colon
MDA-MB-231 breast = test system: MDA-MB-231 breast
RXF 393 renal = test system: RXF 393 renal
NCI-H460 lung = test system: NCI-H460 lung
SF-268 CNS = test system: SF-268 CNS
EKVX NSCLC = test system: EKVX NSCLC
BT-549 breast = test system: BT-549 breast
MALME-3M melanoma = test system: MALME-3M melanoma
HCT-116 colon = test system: HCT-116 colon
K-562 leukemia = test system: K-562 leukemia
MOLT-4 leukemia = test system: MOLT-4 leukemia
OVCAR-4 ovarian = test system: OVCAR-4 ovarian
DU-145 prostate = test system: DU-145 prostate
COLO 205 colon = test system: COLO 205 colon
RPMI-8226 leukemia = test system: RPMI-8226 leukemia
T-47D breast = test system: T-47D breast
NCI-H226 lung = test system: NCI-H226 lung
SF-295 CNS = test system: SF-295 CNS
ACHN renal = test system: ACHN renal
U251 CNS = test system: U251 CNS
NCI-H522 lung = test system: NCI-H522 lung
HT29 colon = test system: HT29 colon
SK-MEL-5 melanoma = test system: SK-MEL-5 melanoma
A498 renal = test system: A498 renal
LOX IMVI melanoma = test system: LOX IMVI melanoma
HOP-62 NSCLC = test system: HOP-62 NSCLC
SNB-19 CNS = test system: SNB-19 CNS
KM12 colon = test system: KM12 colon
SN12C renal = test system: SN12C renal
SK-MEL-28 melanoma = test system: SK-MEL-28 melanoma
OVCAR-3 ovarian = test system: OVCAR-3 ovarian

Structure (SMILES): COC(=O)c1ccc2c(c1)C(=O)c1c-2n(C)c(=O)c2cc(OC)c(OC)cc12
- GI50 (SF-539 CNS): > 50 µM
- TGI (SF-539 CNS): > 50 µM
- GI50 (786-0 renal): 21.8 µM
- TGI (786-0 renal): > 50 µM
- GI50 (SK-MEL-2 melanoma): 37.8 µM
- TGI (SK-MEL-2 melanoma): > 50 µM
- GI50 (OVCAR-5 ovarian): > 50 µM
- TGI (OVCAR-5 ovarian): > 50 µM
- GI50 (PC-3 prostate): > 50 µM
- TGI (PC-3 prostate): > 50 µM
- GI50 (SK-OV-3 ovarian): > 50 µM
- TGI (SK-OV-3 ovarian): > 50 µM
- GI50 (A549 NSCLC): > 50 µM
- TGI (A549 NSCLC): > 50 µM
- GI50 (OVCAR-8 ovarian): > 50 µM
- TGI (OVCAR-8 ovarian): > 50 µM
- GI50 (IGROV1 ovarian): 11.8 µM
- TGI (IGROV1 ovarian): > 50 µM
- GI50 (M14 melanoma): > 50 µM
- TGI (M14 melanoma): > 50 µM
- GI50 (HCT-15 colon): > 50 µM
- TGI (HCT-15 colon): > 50 µM
- GI50 (CAKI-1 renal): > 50 µM
- TGI (CAKI-1 renal): > 50 µM
- GI50 (TK-10 renal): 32.1 µM
- TGI (TK-10 renal): > 50 µM
- GI50 (NCI/ADR-RES ovarian): > 50 µM
- TGI (NCI/ADR-RES ovarian): > 50 µM
- GI50 (HS 578T breast): > 50 µM
- TGI (HS 578T breast): > 50 µM
- GI50 (UACC-62 melanoma): > 50 µM
- TGI (UACC-62 melanoma): > 50 µM
- GI50 (MDA-MB-435): > 50 µM
- TGI (MDA-MB-435): > 50 µM
- GI50 (UO-31 renal): > 50 µM
- TGI (UO-31 renal): > 50 µM
- GI50 (MCF7 breast): > 50 µM
- TGI (MCF7 breast): > 50 µM
- GI50 (NCI-H23 lung): > 50 µM
- TGI (NCI-H23 lung): > 50 µM
- GI50 (SW-620 colon): > 50 µM
- TGI (SW-620 colon): > 50 µM
- GI50 (HOP-92 NSCLC): 18.8 µM
- TGI (HOP-92 NSCLC): > 50 µM
- GI50 (CCRF-CEM leukemia): > 50 µM
- TGI (CCRF-CEM leukemia): > 50 µM
- GI50 (HCC-2998 colon): > 50 µM
- TGI (HCC-2998 colon): > 50 µM
- GI50 (MDA-MB-231 breast): 21.2 µM
- TGI (MDA-MB-231 breast): > 50 µM
- GI50 (RXF 393 renal): 0.123 µM
- TGI (RXF 393 renal): 26.1 µM
- GI50 (NCI-H460 lung): > 50 µM
- TGI (NCI-H460 lung): > 50 µM
- GI50 (SF-268 CNS): > 50 µM
- TGI (SF-268 CNS): > 50 µM
- GI50 (EKVX NSCLC): > 50 µM
- TGI (EKVX NSCLC): > 50 µM
- GI50 (BT-549 breast): > 50 µM
- TGI (BT-549 breast): > 50 µM
- GI50 (MALME-3M melanoma): > 50 µM
- TGI (MALME-3M melanoma): > 50 µM
- GI50 (HCT-116 colon): 40.1 µM
- TGI (HCT-116 colon): > 50 µM
- GI50 (K-562 leukemia): > 50 µM
- TGI (K-562 leukemia): > 50 µM
- GI50 (MOLT-4 leukemia): > 50 µM
- TGI (MOLT-4 leukemia): > 50 µM
- GI50 (OVCAR-4 ovarian): > 50 µM
- TGI (OVCAR-4 ovarian): > 50 µM
- GI50 (DU-145 prostate): > 50 µM
- TGI (DU-145 prostate): > 50 µM
- GI50 (COLO 205 colon): > 50 µM
- TGI (COLO 205 colon): > 50 µM
- GI50 (RPMI-8226 leukemia): > 50 µM
- TGI (RPMI-8226 leukemia): > 50 µM
- GI50 (T-47D breast): > 50 µM
- TGI (T-47D breast): > 50 µM
- GI50 (NCI-H226 lung): > 50 µM
- TGI (NCI-H226 lung): > 50 µM
- GI50 (SF-295 CNS): 34 µM
- TGI (SF-295 CNS): > 50 µM
- GI50 (ACHN renal): > 50 µM
- TGI (ACHN renal): > 50 µM
- GI50 (U251 CNS): 19.8 µM
- TGI (U251 CNS): > 50 µM
- GI50 (NCI-H522 lung): > 50 µM
- TGI (NCI-H522 lung): > 50 µM
- GI50 (HT29 colon): > 50 µM
- TGI (HT29 colon): > 50 µM
- GI50 (SK-MEL-5 melanoma): > 50 µM
- TGI (SK-MEL-5 melanoma): > 50 µM
- GI50 (A498 renal): > 50 µM
- TGI (A498 renal): > 50 µM
- GI50 (LOX IMVI melanoma): > 50 µM
- TGI (LOX IMVI melanoma): > 50 µM
- GI50 (HOP-62 NSCLC): 17.7 µM
- TGI (HOP-62 NSCLC): > 50 µM
- GI50 (SNB-19 CNS): > 50 µM
- TGI (SNB-19 CNS): > 50 µM
- GI50 (KM12 colon): > 50 µM
- TGI (KM12 colon): > 50 µM
- GI50 (SN12C renal): > 50 µM
- TGI (SN12C renal): > 50 µM
- GI50 (SK-MEL-28 melanoma): > 50 µM
- TGI (SK-MEL-28 melanoma): > 50 µM
- GI50 (OVCAR-3 ovarian): 44.6 µM
- TGI (OVCAR-3 ovarian): > 50 µM
